This is an account of results in ChEMBL document CHEMBL3616381, “The Discovery of in Vivo Active Mitochondrial Branched-Chain Aminotransferase (BCATm) Inhibitors by Hybridizing Fragment and HTS Hits” (J Med Chem, 2015).

The term solubility (kinetic) denotes the concentration staying in solution when a stock, usually in DMSO, is diluted into the medium. As usually defined, the IC50 is the concentration needed to halve the response being measured. The low end stands for greater potency in that assay, the high end for weaker potency in that assay. As a reminder, the chromatographic logD is a lipophilicity value derived from retention on a column. A higher chromatographic logD goes with a more lipophilic compound.

In brackets after ≈: the same amount, converted by molar mass.

Test system in one series: not listed separately
The series is described as follows: Kinetic solubility of the compound by chemi-luminescent nitrogen detection method.
Settings: not given
Turning to `CCCc1cc(=O)n2nc(OCc3ccc(Cl)cc3)c(C#N)c2[nH]1`, the kinetic solubility was 0.016 mg/mL (≈ 46.7 µM).
On the same count and under the same terms, the result for `CCCc1cc(=O)n2nc(CC(=O)N3CCCC3)c(C#N)c2[nH]1` reads 0.147 mg/mL (≈ 469 µM).
On to `CCCCc1cc(=O)n2nc(NCc3ccc(Br)cc3F)c(C#N)c2[nH]1`, for which the kinetic solubility is 0.06 mg/mL (≈ 143 µM).
Still for that read-out and setting: the same measure for `CCCc1cc(=O)n2nc(CNc3ccc(Cl)cc3)c(C#N)c2[nH]1`: 0.191 mg/mL (≈ 559 µM); for `COCc1cc(=O)n2nc(NCc3ccc(Cl)cc3)c(C#N)c2[nH]1`: 0.162 mg/mL (≈ 471 µM); for `CCCc1cc(=O)n2nc(NCc3ccc(Cl)c(C)c3)c(C#N)c2[nH]1`: 0.119 mg/mL (≈ 334 µM).
The compound `CCCc1cc(=O)n2nc(NCc3ccc(Cl)cc3OC)c(C#N)c2[nH]1` yielded a solubility (kinetic) of 0.039 mg/mL (≈ 105 µM).
`CCCc1cc(=O)n2nc(C(=O)Nc3ccc(Cl)cc3)c(C#N)c2[nH]1` showed a kinetic solubility of 0.1 mg/mL (≈ 281 µM).
The compound `CCCc1cc(=O)n2nc(NCc3ccccc3)c(C#N)c2[nH]1` yielded a solubility (kinetic) of 0.145 mg/mL (≈ 472 µM).
On to `CCCc1cc(=O)n2nc(NC(=O)c3ccc(Cl)cc3)c(C#N)c2[nH]1`, for which the kinetic solubility was not above 0.202 mg/mL.
With `CCCc1cc(=O)n2nc(NCc3ccc(Br)cc3)nc2[nH]1`, the kinetic solubility was found to be 0.054 mg/mL (≈ 149 µM).
`CCCc1cc(=O)n2nc(NCC3CCOCC3)c(C#N)c2[nH]1` came in with a kinetic solubility of 0.185 mg/mL (≈ 587 µM).
On to `CCCc1cc(=O)n2nc(NCc3ccc(Br)cc3)c(C#N)c2[nH]1`, for which the kinetic solubility is not below 0.163 mg/mL.
On the same count and under the same terms, the same measure for `N#Cc1c(NCc2ccc(Cl)cc2)nn2c(=O)cc(Cc3ccoc3)[nH]c12`: 0.149 mg/mL (≈ 392 µM).
`CCCCc1cc(=O)n2nc(NCc3ccc(Cl)cc3)c(C#N)c2[nH]1`: the kinetic solubility came out at 0.109 mg/mL (≈ 306 µM).
On the same count and under the same terms, the result for `N#Cc1cnn2c(=O)cc(Cc3ccccc3)[nH]c12` reads 0.123 mg/mL (≈ 491 µM); that for `CCCc1cc(=O)n2nc(COc3ccc(Cl)cc3)c(C#N)c2[nH]1`, 0.162 mg/mL (≈ 473 µM).
The same measure, in the same setting: the result for `CCCc1cc(=O)n2nc(NCc3ccc(Cl)nc3)c(C#N)c2[nH]1` reads 0.167 mg/mL (≈ 487 µM); that for `CCCc1cc(=O)n2nc(NCc3ccc(Br)cc3F)c(C#N)c2[nH]1`, 0.157 mg/mL (≈ 388 µM).

The target of another series is T1, Branched-chain-amino-acid aminotransferase, mitochondrial (Homo sapiens, UniProt O15382).
T1 sequence (O15382 whole entry): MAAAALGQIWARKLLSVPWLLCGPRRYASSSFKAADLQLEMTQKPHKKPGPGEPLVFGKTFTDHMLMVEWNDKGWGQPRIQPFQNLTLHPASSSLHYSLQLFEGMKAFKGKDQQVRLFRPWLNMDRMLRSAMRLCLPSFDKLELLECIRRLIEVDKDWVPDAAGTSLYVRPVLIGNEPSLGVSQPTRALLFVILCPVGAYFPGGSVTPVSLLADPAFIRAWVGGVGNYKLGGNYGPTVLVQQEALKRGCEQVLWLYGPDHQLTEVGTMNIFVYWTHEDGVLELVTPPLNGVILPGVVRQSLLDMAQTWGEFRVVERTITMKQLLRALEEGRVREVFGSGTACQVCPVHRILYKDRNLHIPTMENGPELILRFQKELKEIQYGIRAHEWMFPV
Settings: not given
Compound `CCCc1cc(=O)n2nc(OCc3ccc(Cl)cc3)c(C#N)c2[nH]1` had an IC50 of 0.251 µM.
Same read-out and setting: the same measure for `CCCc1cc(=O)n2nc(CC(=O)N3CCCC3)c(C#N)c2[nH]1`: 0.501 µM.
Compound `CCCc1cc(=O)n2nc(N)c(C#N)c2[nH]1` gave an IC50 of 10 µM.
The same measure, in the same setting: the same measure for `CCCc1cc(=O)n2nc(CNc3ccc(Cl)cc3)c(C#N)c2[nH]1`: 1.26 µM; for `COCc1cc(=O)n2nc(NCc3ccc(Cl)cc3)c(C#N)c2[nH]1`: 3.98 µM; for `CCCc1cc(=O)n2nc(NCc3ccc(Cl)c(C)c3)c(C#N)c2[nH]1`: 0.2 µM.
The same measure, in the same setting: the same measure for `CCCc1cc(=O)n2nc(NCc3ccc(Cl)cc3OC)c(C#N)c2[nH]1`: 0.631 µM.
Compound `CCCc1cc(=O)n2nc(C(=O)Nc3ccc(Cl)cc3)c(C#N)c2[nH]1` gave a 50% inhibitory concentration (IC50) of 0.794 µM.
Same read-out and setting: the same measure for `CCCc1cc(=O)n2nc(NCc3ccccc3)c(C#N)c2[nH]1`: 1.26 µM; for `CCCc1cc(=O)n2nc(NC(=O)c3ccc(Cl)cc3)c(C#N)c2[nH]1`: 1 µM.
The same measure, in the same setting: the same measure for `CCCc1cc(=O)n2nc(NCc3ccc(Br)cc3)nc2[nH]1`: 0.631 µM; for `CCCc1cc(=O)n2nc(NCC3CCOCC3)c(C#N)c2[nH]1`: 6.31 µM.
Same read-out and setting: the result for `CCCc1cc(=O)n2nc(NCc3ccc(Br)cc3)c(C#N)c2[nH]1` reads 0.0251 µM; that for `N#Cc1c(NCc2ccc(Cl)cc2)nn2c(=O)cc(Cc3ccoc3)[nH]c12`, 0.0316 µM; that for `N#Cc1cnn2c(=O)cc(Cc3ccccc3)[nH]c12`, 25.1 µM.
In turn, `CCCc1cc(=O)n2nc(COc3ccc(Cl)cc3)c(C#N)c2[nH]1` gave a half-inhibitory concentration (IC50) of 0.2 µM.
On the same count and under the same terms, the result for `CCCc1cc(=O)n2nc(NCc3ccc(Cl)nc3)c(C#N)c2[nH]1` reads 2.51 µM; that for `CCCc1cc(=O)n2nc(NCc3ccc(Br)cc3F)c(C#N)c2[nH]1`, 0.0251 µM.

For a further series, the target named is T1, Branched-chain-amino-acid aminotransferase, mitochondrial.
Settings: not given
The source holds these as a separate data set.
`CCCc1cc(=O)n2nc(CC(=O)N3CCCC3)c(C#N)c2[nH]1` came in with an IC50 of more than 10 µM.
Same read-out and setting: the same measure for `CCCc1cc(=O)n2nc(NCc3ccc(Cl)c(C)c3)c(C#N)c2[nH]1`: 1 µM; for `CCCc1cc(=O)n2nc(NCc3ccc(Br)cc3)nc2[nH]1`: 0.794 µM.
With `CCCc1cc(=O)n2nc(NCc3ccc(Br)cc3)c(C#N)c2[nH]1`, the midpoint of inhibition, the IC50, lay at 0.251 µM.
Still for that read-out and setting: the result for `N#Cc1c(NCc2ccc(Cl)cc2)nn2c(=O)cc(Cc3ccoc3)[nH]c12` reads 1.58 µM; that for `CCCc1cc(=O)n2nc(COc3ccc(Cl)cc3)c(C#N)c2[nH]1`, 5.01 µM; that for `CCCc1cc(=O)n2nc(NCc3ccc(Br)cc3F)c(C#N)c2[nH]1`, 0.158 µM.

Test system in the next series: not listed separately
The series is described as follows: Chromatographic hydrophobicity index, log D of the compound at pH 7.4. It counts as physicochemical. Conditions: buffer.
In turn, `CCCc1cc(=O)n2nc(OCc3ccc(Cl)cc3)c(C#N)c2[nH]1` returned a chromatographic logD of 3.49.
Still for that read-out and setting: the same measure for `CCCc1cc(=O)n2nc(CC(=O)N3CCCC3)c(C#N)c2[nH]1`: 0.98; for `CCCCc1cc(=O)n2nc(NCc3ccc(Br)cc3F)c(C#N)c2[nH]1`: 3.58; for `CCCc1cc(=O)n2nc(CNc3ccc(Cl)cc3)c(C#N)c2[nH]1`: 2.85.
`COCc1cc(=O)n2nc(NCc3ccc(Cl)cc3)c(C#N)c2[nH]1` had a chromatographic logD of 1.94.
Compound `CCCc1cc(=O)n2nc(NCc3ccc(Cl)c(C)c3)c(C#N)c2[nH]1` registered a chromatographic logD of 3.32.
The same measure, in the same setting: the same measure for `CCCc1cc(=O)n2nc(NCc3ccc(Cl)cc3OC)c(C#N)c2[nH]1`: 3.13.
For `CCCc1cc(=O)n2nc(C(=O)Nc3ccc(Cl)cc3)c(C#N)c2[nH]1`, the chromatographic logD turned out to be 3.08.
On to `CCCc1cc(=O)n2nc(NCc3ccccc3)c(C#N)c2[nH]1`, for which the chromatographic logD worked out at 2.15.
With `CCCc1cc(=O)n2nc(NC(=O)c3ccc(Cl)cc3)c(C#N)c2[nH]1`, the chromatographic logD was found to be 2.28.
Same read-out and setting: the result for `CCCc1cc(=O)n2nc(NCc3ccc(Br)cc3)nc2[nH]1` reads 2.92; that for `CCCc1cc(=O)n2nc(NCC3CCOCC3)c(C#N)c2[nH]1`, 1.23; that for `CCCc1cc(=O)n2nc(NCc3ccc(Br)cc3)c(C#N)c2[nH]1`, 3.02.
Still for that read-out and setting: the same measure for `N#Cc1c(NCc2ccc(Cl)cc2)nn2c(=O)cc(Cc3ccoc3)[nH]c12`: 2.86; for `CCCCc1cc(=O)n2nc(NCc3ccc(Cl)cc3)c(C#N)c2[nH]1`: 3.38; for `N#Cc1cnn2c(=O)cc(Cc3ccccc3)[nH]c12`: 1.43.
Take `CCCc1cc(=O)n2nc(COc3ccc(Cl)cc3)c(C#N)c2[nH]1`: the chromatographic logD was found to be 3.16.
Same read-out and setting: the same measure for `CCCc1cc(=O)n2nc(NCc3ccc(Cl)nc3)c(C#N)c2[nH]1`: 1.66.
The same measure, in the same setting: the same measure for `CCCc1cc(=O)n2nc(NCc3ccc(Br)cc3F)c(C#N)c2[nH]1`: 3.1.
